Experimental findings from US12545659B2, “IRAK degraders and uses thereof” (Kymera Therapeutics, Inc., priority 2019, dated 2026) are described below.

Bounds are passed on as bounds.

The first test addresses T1, IRAK4 (Homo sapiens, UniProt Q9NWZ3).
T1 construct: endogenous in cells; host or cells: OCI-LY10
T1 sequence (Q9NWZ3 1-460): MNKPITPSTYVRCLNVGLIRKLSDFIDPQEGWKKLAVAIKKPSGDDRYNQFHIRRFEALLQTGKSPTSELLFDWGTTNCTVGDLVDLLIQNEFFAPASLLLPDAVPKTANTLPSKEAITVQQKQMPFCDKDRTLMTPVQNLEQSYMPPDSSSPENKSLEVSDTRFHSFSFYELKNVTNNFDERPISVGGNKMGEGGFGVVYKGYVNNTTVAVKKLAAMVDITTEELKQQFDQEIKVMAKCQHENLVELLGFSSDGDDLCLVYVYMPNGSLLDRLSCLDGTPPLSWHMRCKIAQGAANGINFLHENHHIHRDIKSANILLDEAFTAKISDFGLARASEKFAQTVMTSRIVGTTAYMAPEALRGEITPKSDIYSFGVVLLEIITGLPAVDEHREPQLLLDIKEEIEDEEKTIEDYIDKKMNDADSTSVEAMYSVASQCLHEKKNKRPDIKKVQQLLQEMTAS
As to the kind of experiment: IRAK4 MSD Degradation in OCI-LY10. Type of test: cell-based. Conditions: OCI-LY10 cells, 4 hrs incubation, read-out: IRAK4 degradation in OCI-LY10 at 4 hrs: DC50. The protocol:
Degradation of IRAK4 in OCI-LY10 was quantitatively measured using Meso Scale Discovery technology. […] Compounds were then added to the assay plates with a final top concentration of 1 to 10 μM in a 1:3 dilution series with total of 8 doses. The assay plates were then incubated for 4 to 24 hours at 37° C. under 5% C02. […] To prepare MSD assay plates (Meso Scale Discovery Catalog number L15XA-3), the plates were coated with […] capture antibody (mouse Anti-IRAK4 antibody [2H9], ab119942) in PBS, at 40 μL/well. […] Cell lysates were then added to MSD assay plates and the plates were incubated at room temperature for 1 hour. The plates were then washed 3 times with 150 μL/well TBST buffer and 25 μL/well primary detection antibody (rabbit Anti-IRAK4 antibody [Y279], from Abcam. Catalog number ab32511, 1 μg/mL). The assay plates were then incubated at room temperature for 1 hour, washed 3 times with 150 μL/well TBST buffer and 25 μL/well secondary detection antibody, SULFO-TAG anti-rabbit antibody were added (anti rabbit antibody from Meso Scale Discovery, Catalog number R32AB-1, 1 μg/mL). The assay plates were then incubated at room temperature for 1 hour, washed 3 times with 150 μL/well TBST buffer, and 150 μL/well MSD reading buffer (Meso Scale Discovery catalog number R92TC-2) was added. The plates were then analyzed by a MSD reader (Meso Scale Discovery, Model Quick Plex SQ 120). The data was then analyzed by software Prism 7.0 from GraphPad and the dose-depended IRAK4 degradation were fit using a three-parameter logistic equation to calculate DC50.
The letter codes for IRAK4 […] include: A (<0.05 μM); B (0.05-0.1 μM); C (0.1-0.5 μM); D (0.5-1.0 μM); and E (>1.0 μM).
For `Cn1c(=O)n(C2CCC(=O)NC2=O)c2cccc(CC3CC4(CCN(C[C@H]5CC[C@H](n6cc7cc(NC(=O)c8cccc(C(F)(F)F)n8)c(C(C)(C)O)cc7n6)CC5)CC4)C3)c21` (stereo partly shown) [I-56], the 50% degradation concentration (DC50) is < 50 nM.

Consider `Cn1c(=O)n(C2CCC(=O)NC2=O)c2cccc(CN3CC4(CCN(C[C@H]5CC[C@H](n6cc7cc(NC(=O)c8cccc(C(F)(F)F)n8)c(C(C)(C)O)cc7n6)CC5)CC4)C3)c21` (stereo partly shown) [I-57], for which the DC50 was < 50 nM.

For the molecule `Cn1c(=O)n(C2CCC(=O)NC2=O)c2cccc(C#CCCCNC[C@H]3CC[C@H](n4cc5cc(NC(=O)c6cccc(C(F)(F)F)n6)c(C(C)(C)O)cc5n4)CC3)c21` (stereo partly shown) [I-60, N-[2-[4-[[5-[1-(2,6-dioxo-3-piperidyl)-3-methyl-2-oxo-benzimidazol-4-yl]pent-4-ynylamino]methyl]cyclohexyl]-6-(1-hydroxy-1-methyl-ethyl)indazol-5-yl]-6-(trifluoromethyl)pyridine-2-carboxamide], the half-maximal degradation concentration (DC50) is < 50 nM.

In the case of `Cn1c(=O)n(C2CCC(=O)NC2=O)c2ccc(C#CCCCNC[C@H]3CC[C@H](n4cc5cc(NC(=O)c6cccc(C(F)(F)F)n6)c(C(C)(C)O)cc5n4)CC3)cc21` (stereo partly shown) [I-61, N-[2-[4-[[5-[1-(2,6-dioxo-3-piperidyl)-3-methyl-2-oxo-benzimidazol-5-yl]pent-4-ynylamino]methyl]cyclohexyl]-6-(1-hydroxy-1-methyl-ethyl)indazol-5-yl]-6-(trifluoromethyl)pyridine-2-carboxamide], the DC50 is < 50 nM.

As for `Cn1c(=O)n(C2CCC(=O)NC2=O)c2cccc(C[C@H]3CC[C@H](N(C)C[C@H]4CC[C@H](n5cc6cc(NC(=O)c7cccc(C(F)(F)F)n7)c(C(C)(C)O)cc6n5)CC4)CC3)c21` (stereo partly shown) [I-62], the 50% degradation concentration (DC50) was < 50 nM.

Consider `Cn1c(=O)n(C2CCC(=O)NC2=O)c2cccc(CN3CCC(OC4CCN(C[C@H]5CC[C@H](n6cc7cc(NC(=O)c8cccc(C(F)(F)F)n8)c(C(C)(C)O)cc7n6)CC5)CC4)CC3)c21` (stereo partly shown) [I-66], for which the DC50 was < 50 nM.

Consider `CN(CCCC#Cc1ccc2c(c1)n(C)c(=O)n2C1CCC(=O)NC1=O)C[C@H]1CC[C@H](n2cc3cc(NC(=O)c4cccc(C(F)(F)F)n4)c(C(C)(C)O)cc3n2)CC1` (stereo partly shown) [I-67, N-(2-((1r,4r)-4-(((5-(1-(2,6-dioxopiperidin-3-yl)-3-methyl-2-oxo-2,3-dihydro-1H-benzo[d]imidazol-5-yl)pent-4-yn-1-yl)(methyl)amino)methyl)cyclohexyl)-6-(2-hydroxypropan-2-yl)-2H-indazol-5-yl)-6-(trifluoromethyl)picolinamide], for which the DC50 was < 50 nM.

As for `Cn1c(=O)n(C2CCC(=O)NC2=O)c2cccc(CC3CCN(C[C@H]4CC[C@H](n5cc6cc(NC(=O)c7cccc(C(F)(F)F)n7)c(C(F)F)cc6n5)CC4)CC3)c21` (stereo partly shown) [I-72], the DC50 was < 50 nM.

For `Cn1c(=O)n(C2CCC(=O)NC2=O)c2cccc(C[C@H]3CC[C@H](N(C)C[C@H]4CC[C@H](n5cc6cc(NC(=O)c7cccc(C(F)(F)F)n7)c(C(F)F)cc6n5)CC4)CC3)c21` (stereo partly shown) [I-73], the 50% degradation concentration (DC50) was 50 to 100 nM.

With `CN(C[C@H]1CC[C@H](n2cc3cc(NC(=O)c4cccc(C(F)(F)F)n4)c(C(C)(C)O)cc3n2)CC1)C1CCC2(CC1)CC(Cc1cccc3c1n(C)c(=O)n3C1CCC(=O)NC1=O)C2` (stereo partly shown) [I-74], the DC50 was < 50 nM.

For `CN(C[C@H]1CC[C@H](n2cc3cc(NC(=O)c4cccc(C(F)(F)F)n4)c(C(C)(C)O)cc3n2)CC1)C1CCN(c2ccc3c(c2)n(C)c(=O)n3C2CCC(=O)NC2=O)CC1` (stereo partly shown) [I-75], the DC50 is < 50 nM.

For the molecule `CN(C[C@H]1CC[C@H](n2cc3cc(NC(=O)c4cccc(C(F)(F)F)n4)c(C(C)(C)O)cc3n2)CC1)C1CCN(c2cccc3c2n(C)c(=O)n3C2CCC(=O)NC2=O)CC1` (stereo partly shown) [I-80], the DC50 was < 50 nM.

`Cn1c(=O)n(C2CCC(=O)NC2=O)c2cccc(CCC3CC4(CCN(C[C@H]5CC[C@H](n6cc7cc(NC(=O)c8ccccn8)c(C(C)(C)O)cc7n6)CC5)CC4)C3)c21` (stereo partly shown) [I-81]: the DC50 was 50 to 100 nM.

As for `CN(C[C@H]1CC[C@H](n2cc3cc(NC(=O)c4ccccn4)c(C(C)(C)O)cc3n2)CC1)C1CCN(c2ccc3c(c2)n(C)c(=O)n3C2CCC(=O)NC2=O)CC1` (stereo partly shown) [I-82], the 50% degradation concentration (DC50) was < 50 nM.

As to `CN(C[C@H]1CC[C@H](n2cc3cc(NC(=O)c4cccc(C(F)(F)F)n4)c(C(C)(C)O)cc3n2)CC1)C1CCN(c2ccc3c(c2)n(C2CCC(=O)NC2=O)c(=O)n3C)CC1` (stereo partly shown) [I-83], the half-maximal degradation concentration (DC50) is 500 to 1000 nM.

As for `CN(C[C@H]1CC[C@H](n2cc3cc(NC(=O)c4ccccn4)c(C(C)(C)O)cc3n2)CC1)C1CCN(c2cccc3c2n(C)c(=O)n3C2CCC(=O)NC2=O)CC1` (stereo partly shown) [I-84], the half-maximal degradation concentration (DC50) was < 50 nM.

Still in this test, the particulars now being: OCI-LY10 cells, 24 hrs incubation, read-out: IRAK4 degradation in OCI-LY10 at 24 hrs: DC50.
For `CN(C[C@H]1CC[C@H](n2cc3cc(NC(=O)c4cccc(C(C)(C)F)n4)c(C(C)(C)O)cc3n2)CC1)[C@H]1CC[C@H](CNc2cccc3c2C(=O)N(C2CCC(=O)NC2=O)C3=O)CC1` (stereo partly shown) [I-58], the DC50 is 50 to 100 nM.

`CC(C)(O)c1cc2nn([C@H]3CC[C@H](CN4CCC(COCCCNc5cccc6c5C(=O)N(C5CCC(=O)NC5=O)C6=O)CC4)CC3)cc2cc1NC(=O)c1cccc(C(C)(C)F)n1` (stereo partly shown) [I-59]: the half-maximal degradation concentration (DC50) fell in the range of 50 to 100 nM.

Take `CC(C)(O)c1cc2nn([C@H]3CC[C@H](CN4CCO[C@H](CCCNc5cccc6c5C(=O)N(C5CCC(=O)NC5=O)C6=O)C4)CC3)cc2cc1NC(=O)c1cccc(C(F)(F)F)n1` (stereo partly shown) [I-64]: the DC50 was < 50 nM.

Take `CC(C)(O)c1cc2nn([C@H]3CC[C@H](CN4CCO[C@@H](CCNc5cccc6c5C(=O)N(C5CCC(=O)NC5=O)C6=O)C4)CC3)cc2cc1NC(=O)c1cccc(C(F)(F)F)n1` (stereo partly shown) [I-65]: the 50% degradation concentration (DC50) was < 50 nM.

For `COc1cc2nn([C@H]3CC[C@H](CN4CCO[C@H](CCCNc5cccc6c5C(=O)N(C5CCC(=O)NC5=O)C6=O)C4)CC3)cc2cc1NC(=O)c1cccc(C(F)(F)F)n1` (stereo partly shown) [I-68], the DC50 is 50 to 100 nM.

With `COc1cc2nn([C@H]3CC[C@H](CN4CCC(O[C@H]5CC[C@H](CNc6cccc7c6C(=O)N(C6CCC(=O)NC6=O)C7=O)CC5)CC4)CC3)cc2cc1NC(=O)c1cccc(C(F)(F)F)n1` (stereo partly shown) [I-69], the DC50 fell in the range of 50 to 100 nM.

In the case of `CN(CCCO[C@H]1C[C@H](Nc2cccc3c2C(=O)N(C2CCC(=O)NC2=O)C3=O)C1)C[C@H]1CC[C@H](n2cc3cc(NC(=O)Cc4cccc(C(F)(F)F)n4)c(C(C)(C)O)cc3n2)CC1` (stereo partly shown) [I-70], the half-maximal degradation concentration (DC50) is 500 to 1000 nM.

Regarding `COc1cc2nn([C@H]3CC[C@H](CN4CCO[C@@H](CCNc5cccc6c5C(=O)N(C5CCC(=O)NC5=O)C6=O)C4)CC3)cc2cc1NC(=O)c1cccc(C(F)(F)F)n1` (stereo partly shown) [I-71], the DC50 fell in the range of 50 to 100 nM.

For `COc1cc2nn([C@H]3CC[C@H](CN(C)C4CCN(c5cccc6c5C(=O)N(C5CCC(=O)NC5=O)C6=O)CC4)CC3)cc2cc1NC(=O)c1cccc(C(F)(F)F)n1` (stereo partly shown) [I-76], the DC50 fell in the range of 100 to 500 nM.

Regarding `COc1cc2nn([C@H]3CC[C@H](CN(C)CCCO[C@H]4C[C@H](Nc5ccc6c(c5)C(=O)N(C5CCC(=O)NC5=O)C6=O)C4)CC3)cc2cc1NC(=O)c1cccc(C(F)(F)F)n1` (stereo partly shown) [I-77], the DC50 lay in the range of 50 to 100 nM.

`COc1cc2nn([C@H]3CC[C@H](CN4CCC5(CC4)CC(Nc4cccc6c4C(=O)N(C4CCC(=O)NC4=O)C6=O)C5)CC3)cc2cc1NC(=O)c1cccc(C(C)(C)F)n1` (stereo partly shown) [I-78]: the DC50 lay within 50 to 100 nM.

Turning to `CN(CCCn1cc2cc(NC(=O)c3cccc(C(F)(F)F)n3)c(C(C)(C)O)cc2n1)C1CCC2(CC1)CC(Nc1cccc3c1C(=O)N(C1CCC(=O)NC1=O)C3=O)C2` (stereo not shown) [I-79], the DC50 was 100 to 500 nM.
